Test results: publication PMC10934235, “Inhibitory Effects of the Polyphenols from the Root of Rhizophora apiculata Blume on Fatty Acid Synthase Activity and Human Colon Cancer Cells” (Molecules, 2024)
Values after ≈ are worked out from the molar mass of the structure shown. Where two headings read alike, the source gives them in different places. One block for each compound: values may come before it.

Legend:
[1] = molecular target: T1, chicken liver FAS (Gallus gallus, UniProt P12276); test: FAS overall reaction, fast-binding inhibition (NADPH decrease at 340 nm); format: biochemical
T1 construct: The purification, storage, and application of the chicken liver FAS were conducted following established procedures; from tissue; host or cells: chicken liver (chickens from Huadu Broiler Corporation, Beijing)
T1 sequence (P12276 whole entry): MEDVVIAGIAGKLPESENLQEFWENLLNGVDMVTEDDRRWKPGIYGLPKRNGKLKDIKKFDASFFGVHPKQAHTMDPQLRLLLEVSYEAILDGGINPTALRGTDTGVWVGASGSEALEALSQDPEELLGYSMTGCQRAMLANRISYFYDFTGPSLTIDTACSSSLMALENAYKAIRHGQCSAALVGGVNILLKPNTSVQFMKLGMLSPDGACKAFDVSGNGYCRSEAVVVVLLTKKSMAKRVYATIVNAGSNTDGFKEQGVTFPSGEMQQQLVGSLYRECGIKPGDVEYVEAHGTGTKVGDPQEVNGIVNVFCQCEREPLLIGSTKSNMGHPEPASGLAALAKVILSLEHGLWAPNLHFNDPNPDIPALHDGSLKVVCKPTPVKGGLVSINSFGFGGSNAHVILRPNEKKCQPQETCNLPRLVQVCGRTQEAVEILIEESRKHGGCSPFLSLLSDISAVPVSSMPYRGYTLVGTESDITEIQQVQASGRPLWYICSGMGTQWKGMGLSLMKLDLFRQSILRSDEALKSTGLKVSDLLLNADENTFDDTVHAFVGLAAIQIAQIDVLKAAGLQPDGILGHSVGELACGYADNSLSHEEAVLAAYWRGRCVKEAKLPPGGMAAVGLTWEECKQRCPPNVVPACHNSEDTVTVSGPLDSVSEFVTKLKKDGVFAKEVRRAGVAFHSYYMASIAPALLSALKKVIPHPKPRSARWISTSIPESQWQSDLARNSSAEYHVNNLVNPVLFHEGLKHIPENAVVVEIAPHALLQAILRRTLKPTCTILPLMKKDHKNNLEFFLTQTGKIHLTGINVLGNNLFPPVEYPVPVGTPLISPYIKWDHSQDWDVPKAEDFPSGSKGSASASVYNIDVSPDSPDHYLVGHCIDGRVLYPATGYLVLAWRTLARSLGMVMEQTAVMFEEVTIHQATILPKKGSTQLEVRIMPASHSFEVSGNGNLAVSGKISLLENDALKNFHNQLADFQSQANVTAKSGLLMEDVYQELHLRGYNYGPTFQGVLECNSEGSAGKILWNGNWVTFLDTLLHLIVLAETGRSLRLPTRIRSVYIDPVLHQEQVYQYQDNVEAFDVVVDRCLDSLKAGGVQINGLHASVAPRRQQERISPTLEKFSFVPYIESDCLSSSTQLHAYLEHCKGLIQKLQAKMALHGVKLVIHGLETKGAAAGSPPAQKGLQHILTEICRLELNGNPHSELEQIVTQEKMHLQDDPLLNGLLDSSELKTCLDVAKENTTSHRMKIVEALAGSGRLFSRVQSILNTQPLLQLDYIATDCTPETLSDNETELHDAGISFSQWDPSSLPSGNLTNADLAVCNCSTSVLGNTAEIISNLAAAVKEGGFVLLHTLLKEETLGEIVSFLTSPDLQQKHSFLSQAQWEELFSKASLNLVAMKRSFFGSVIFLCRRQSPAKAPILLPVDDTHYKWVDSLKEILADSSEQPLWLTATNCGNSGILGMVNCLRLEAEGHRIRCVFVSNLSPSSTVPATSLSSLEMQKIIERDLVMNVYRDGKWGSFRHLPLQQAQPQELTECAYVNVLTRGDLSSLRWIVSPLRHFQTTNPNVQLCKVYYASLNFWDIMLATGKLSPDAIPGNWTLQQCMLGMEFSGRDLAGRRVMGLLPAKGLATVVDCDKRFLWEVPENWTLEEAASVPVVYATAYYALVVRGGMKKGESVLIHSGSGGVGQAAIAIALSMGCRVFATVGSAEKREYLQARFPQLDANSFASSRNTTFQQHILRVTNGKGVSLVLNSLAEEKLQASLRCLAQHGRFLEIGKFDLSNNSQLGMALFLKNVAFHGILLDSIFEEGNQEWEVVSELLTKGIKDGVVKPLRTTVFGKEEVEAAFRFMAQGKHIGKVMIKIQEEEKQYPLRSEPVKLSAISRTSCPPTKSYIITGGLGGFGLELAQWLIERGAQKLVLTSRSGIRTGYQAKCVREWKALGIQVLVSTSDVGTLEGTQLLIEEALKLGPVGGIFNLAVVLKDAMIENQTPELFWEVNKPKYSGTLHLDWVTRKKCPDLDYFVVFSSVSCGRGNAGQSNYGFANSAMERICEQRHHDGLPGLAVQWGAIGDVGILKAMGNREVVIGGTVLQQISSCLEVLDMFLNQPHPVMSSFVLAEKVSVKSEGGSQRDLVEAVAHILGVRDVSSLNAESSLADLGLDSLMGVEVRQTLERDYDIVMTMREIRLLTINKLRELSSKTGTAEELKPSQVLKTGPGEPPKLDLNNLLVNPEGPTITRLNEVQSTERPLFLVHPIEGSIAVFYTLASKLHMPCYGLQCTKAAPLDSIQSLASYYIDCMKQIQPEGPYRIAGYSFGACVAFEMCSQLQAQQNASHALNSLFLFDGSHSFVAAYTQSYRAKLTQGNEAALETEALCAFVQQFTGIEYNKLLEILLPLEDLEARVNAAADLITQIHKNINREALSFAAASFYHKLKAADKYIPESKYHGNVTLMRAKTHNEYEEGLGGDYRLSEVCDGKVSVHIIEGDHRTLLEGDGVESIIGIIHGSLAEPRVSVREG
Experimental: (§1) The FAS employed in this study was sourced from chicken liver, given that the amino acid sequence of chicken FAS shares 63% identity with its human counterpart. The chickens were purchased from Huadu Broiler Corporation, Beijing, China. The purification, storage, and application of the chicken liver FAS were conducted following established procedures. Animal procedures adhered to the Guidelines for the Care and Use of Laboratory Animals as set forth by the Beijing Association for Laboratory Animal Science. […] Concentrations of the enzyme and substrates were determined through absorption measurements, with extinction coefficients being utilized as previously outlined.
(§2) The overall reaction of FAS and the β-ketoacyl reduction facilitated by KR (a functional domain of FAS) were assessed using an Amersham Pharmacia Ultrospec 4300 pro UV-Vis spectrophotometer (GE Healthcare China Company, Beijing, China) at 37 °C by monitoring the decrease of NADPH at 340 nm. The overall reaction mixture comprised potassium phosphate buffer (100 mM, pH 7.0), ethylenediaminetetraacetic acid (EDTA) (1 mM), 1,4-dithiothreitol (DTT) (1 mM), acetyl-CoA (6 µM), malonyl-CoA (12 µM), NADPH (37.5 µM), and chicken liver FAS (10 µg), with a total volume of 2.0 mL. For the KR reaction, the mixture included ethyl acetoacetate (40 mM), NADPH (35 µM), 1 mM of EDTA, and the enzyme (15 µg) in 100 mM of phosphate buffer at pH 7.0, with a total volume of 2.0 mL [41].
(§3) The extent of inhibition was quantified by determining the IC50 value through a plot of residual activity against varying inhibitor concentrations.

[2] = molecular target: T2, KR (a functional domain of FAS) (Gallus gallus, UniProt P12276); test: KR reaction of FAS, fast-binding inhibition (ethyl acetoacetate, NADPH); format: biochemical, chicken
T2 construct: The purification, storage, and application of the chicken liver FAS were conducted following established procedures; from tissue; host or cells: chicken liver (chickens from Huadu Broiler Corporation, Beijing)
T2 sequence (P12276 whole entry, the tested form may be a part): as the sequence (P12276 whole entry) above
Experimental: as §1
as §2, with “For the KR reaction, the mixture included ethyl acetoacetate (40 mM), NADPH (35 µM), 1 mM of EDTA, and the enzyme (15 µg) in 100 mM of phosphate buffer at pH 7.0, with a total volume of 2.0 mL [41].” left out
as §3

[3] = molecular target: T1, chicken liver FAS; test: Enzyme kinetics study, FAS overall reaction (double reciprocal plots); format: biochemical; conditions: LR 0-15.0 μg/mL
Experimental: as §2
(§4) Double reciprocal plots were generated for each inhibitor concentration to determine the competitive relationship between the variable substrate and inhibitor concentrations. This study focused on examining fast-binding inhibition.

[4] = molecular target: T2, KR (a functional domain of FAS); test: Enzyme kinetics study, KR reaction of FAS (double reciprocal plots); format: biochemical, chicken; conditions: NADPH variable substrate, LR 0-15.0 μg/mL
Experimental: as §2, §4

[5] = test system: CaCo2 cells; test: Cell viability, MTT assay; format: cell-based, human
From the text: (§5) The human colon cancer cell lines CaCo2, LoVo, and SW620 were purchased from the Type Culture Collection of the Chinese Academy of Sciences (Shanghai, China). The CaCo2 cell line, originating from a human colon adenocarcinoma isolated in the 1970s, undergoes processes of proliferation, confluency, and differentiation during growth. […] LoVo, another cell line isolated in 1971 from the large intestine of a person with grade IV Dukes C colorectal cancer, offers applications in cancer, toxicology, and immuno-oncology research. SW620 cells, obtained from the large intestine of a person Dukes C colorectal cancer patient, are valuable resources for cancer and toxicology investigations. Cells were grown in Dulbecco’s Modified Eagle Medium (DMEM) supplemented with 10% fetal bovine serum (FBS) and were maintained in a humidified atmosphere containing 95% air and 5% CO2 at 37 °C.
(§6) LR was examined to evaluate its inhibition on the proliferation of CaCo2, LoVo, and SW620 cells. CaCo2, LoVo, and SW620 cells were grown in 96-well plates until reaching confluence and were treated with either DMSO (1:1000) or increasing doses of LR for 24 h at 37 °C. Following this, the cell medium was replaced with fresh medium containing 500 µg/mL MTT. After a 4-h incubation at 37 °C, the plates were decanted, and 150 µL of DMSO was added to dissolve the formazan crystals. Subsequently, the plate was analyzed using a microplate spectrophotometer (Multiskan, MK3) (Thermo Fisher Scientific Inc., Waltham, MA, USA) at a wavelength of 492 nm. Each experiment was conducted five times on three separate occasions.

[6] = test system: LoVo cells; test: Cell viability, MTT assay; format: cell-based, human; conditions: 24 h
From the text: as §5, §6

[7] = test system: SW620 cells; test: Cell viability, MTT assay; format: cell-based, human
From the text: as §5, §6

[8] = molecular target: T3, intracellular FAS activity in CaCo2 cells (Homo sapiens, UniProt P49327); test: Intracellular FAS activity assay; format: cell-based; conditions: LR 60 µg/mL, 24 h
T3 construct: the cells were sonicated at 4 °C and centrifuged at 12,000 rpm for 15 min at 4 °C to obtain particle-free supernatants; endogenous in cells; host or cells: CaCo2, LoVo, SW620
T3 sequence (P49327 whole entry): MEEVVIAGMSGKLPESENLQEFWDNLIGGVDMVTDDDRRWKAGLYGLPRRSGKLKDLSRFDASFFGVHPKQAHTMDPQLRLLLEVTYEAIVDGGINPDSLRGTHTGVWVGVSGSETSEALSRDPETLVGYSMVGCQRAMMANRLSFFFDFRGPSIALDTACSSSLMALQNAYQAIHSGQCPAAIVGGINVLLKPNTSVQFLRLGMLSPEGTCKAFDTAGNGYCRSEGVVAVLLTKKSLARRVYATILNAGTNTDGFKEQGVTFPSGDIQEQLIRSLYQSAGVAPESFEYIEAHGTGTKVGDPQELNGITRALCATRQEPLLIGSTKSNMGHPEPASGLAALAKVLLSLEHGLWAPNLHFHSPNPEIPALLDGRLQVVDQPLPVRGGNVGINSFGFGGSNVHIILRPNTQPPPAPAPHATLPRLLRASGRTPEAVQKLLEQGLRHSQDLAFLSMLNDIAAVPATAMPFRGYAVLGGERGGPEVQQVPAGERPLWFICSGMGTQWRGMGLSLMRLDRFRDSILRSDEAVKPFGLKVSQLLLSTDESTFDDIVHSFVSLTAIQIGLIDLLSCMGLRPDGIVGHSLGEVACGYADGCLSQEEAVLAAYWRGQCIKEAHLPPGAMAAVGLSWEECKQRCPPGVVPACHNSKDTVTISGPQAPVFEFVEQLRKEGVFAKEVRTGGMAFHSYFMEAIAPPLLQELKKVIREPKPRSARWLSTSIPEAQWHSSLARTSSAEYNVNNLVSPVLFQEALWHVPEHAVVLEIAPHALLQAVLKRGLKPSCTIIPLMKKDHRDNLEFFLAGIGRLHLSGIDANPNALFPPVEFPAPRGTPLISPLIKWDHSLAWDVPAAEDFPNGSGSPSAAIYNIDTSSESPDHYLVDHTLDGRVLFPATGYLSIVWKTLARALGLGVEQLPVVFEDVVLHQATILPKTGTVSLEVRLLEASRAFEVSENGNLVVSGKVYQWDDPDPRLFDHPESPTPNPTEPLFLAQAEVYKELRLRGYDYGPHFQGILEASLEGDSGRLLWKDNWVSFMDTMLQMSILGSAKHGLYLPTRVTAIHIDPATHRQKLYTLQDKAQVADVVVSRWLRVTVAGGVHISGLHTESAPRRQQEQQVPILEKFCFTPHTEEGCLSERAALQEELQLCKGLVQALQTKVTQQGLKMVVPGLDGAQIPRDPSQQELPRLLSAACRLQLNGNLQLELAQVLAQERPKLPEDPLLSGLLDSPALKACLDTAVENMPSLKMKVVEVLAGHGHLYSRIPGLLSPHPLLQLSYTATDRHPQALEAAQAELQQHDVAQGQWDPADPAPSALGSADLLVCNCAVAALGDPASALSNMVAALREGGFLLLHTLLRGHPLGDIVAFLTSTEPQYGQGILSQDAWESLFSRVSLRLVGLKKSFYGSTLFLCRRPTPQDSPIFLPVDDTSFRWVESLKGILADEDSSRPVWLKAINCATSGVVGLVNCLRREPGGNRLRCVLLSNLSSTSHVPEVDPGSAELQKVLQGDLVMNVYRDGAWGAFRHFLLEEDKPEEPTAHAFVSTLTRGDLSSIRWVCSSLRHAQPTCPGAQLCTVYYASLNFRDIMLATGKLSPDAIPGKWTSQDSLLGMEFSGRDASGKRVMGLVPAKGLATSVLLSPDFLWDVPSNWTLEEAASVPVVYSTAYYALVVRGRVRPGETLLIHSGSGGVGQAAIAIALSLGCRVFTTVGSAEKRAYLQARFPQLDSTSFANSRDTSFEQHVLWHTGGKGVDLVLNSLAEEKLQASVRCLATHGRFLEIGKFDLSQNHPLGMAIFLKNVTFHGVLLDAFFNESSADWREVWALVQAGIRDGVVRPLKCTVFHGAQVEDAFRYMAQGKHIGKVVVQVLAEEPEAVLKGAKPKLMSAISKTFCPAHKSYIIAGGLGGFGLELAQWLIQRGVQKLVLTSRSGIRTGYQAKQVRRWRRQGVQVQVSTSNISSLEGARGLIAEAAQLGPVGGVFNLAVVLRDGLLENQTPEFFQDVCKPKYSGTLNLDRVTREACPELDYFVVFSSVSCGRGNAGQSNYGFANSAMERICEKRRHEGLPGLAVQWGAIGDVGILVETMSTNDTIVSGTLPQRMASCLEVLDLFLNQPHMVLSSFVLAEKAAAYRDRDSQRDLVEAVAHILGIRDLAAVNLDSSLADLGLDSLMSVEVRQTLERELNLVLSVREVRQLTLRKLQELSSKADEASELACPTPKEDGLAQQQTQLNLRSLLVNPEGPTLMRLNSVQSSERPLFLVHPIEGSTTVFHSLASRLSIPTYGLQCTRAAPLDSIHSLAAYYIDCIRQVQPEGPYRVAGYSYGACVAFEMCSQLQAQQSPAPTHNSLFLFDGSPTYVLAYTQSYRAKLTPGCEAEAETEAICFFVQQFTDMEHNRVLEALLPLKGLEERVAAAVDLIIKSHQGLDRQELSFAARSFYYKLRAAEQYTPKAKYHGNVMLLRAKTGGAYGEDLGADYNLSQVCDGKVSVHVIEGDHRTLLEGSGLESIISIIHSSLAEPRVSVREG
From the text: as §5
(§7) Cells were exposed to LR for 24 h, followed by collection through trypsinization, centrifugation, triple washing, and resuspension in cold PBS. Subsequently, the cells were sonicated at 4 °C and centrifuged at 12,000 rpm for 15 min at 4 °C to obtain particle-free supernatants. The intracellular FAS activity was assessed spectrophotometrically by measuring the reduction in absorbance at 340 nm due to the oxidation of NADPH. A total volume of 500 µL of buffer comprising 50 µL of particle-free supernatant, 25 mM of KH2PO4-K2HPO4 buffer, 0.25 mM of EDTA, 0.25 mM of dithiothreitol, 30 µM of acetyl-CoA, and 350 µM of NADPH (pH 7.0) was monitored at 340 nm for 1 min to establish baseline NADPH oxidation. Following the addition of […] of malonyl-CoA, the reaction was further monitored for 1 min to determine FAS-dependent NADPH oxidation.

[9] = molecular target: T4, intracellular FAS activity in LoVo cells (Homo sapiens, UniProt P49327); test: Intracellular FAS activity assay; format: cell-based
T4 construct: the cells were sonicated at 4 °C and centrifuged at 12,000 rpm for 15 min at 4 °C to obtain particle-free supernatants; endogenous in cells; host or cells: CaCo2, LoVo, SW620
T4 sequence (P49327 whole entry): as above
From the text: as §5, §7

[10] = molecular target: T5, intracellular FAS activity in SW620 cells (Homo sapiens, UniProt P49327); test: Intracellular FAS activity assay; format: cell-based
T5 construct: the cells were sonicated at 4 °C and centrifuged at 12,000 rpm for 15 min at 4 °C to obtain particle-free supernatants; endogenous in cells; host or cells: CaCo2, LoVo, SW620
T5 sequence (P49327 whole entry): as above
From the text: as §5, §7

[11] = fast-binding inhibition, 37 °C, mean ± SD, three experiments
[12] = fast-binding inhibition, 37 °C, mean ± SD, three experiments, read-out: FAS Inhibitory Activity IC50 (converted)
[13] = LR 25 μg/mL + palmitic acid 100 μM, 24 h, versus LR alone

IC50 [1, 12]: > 362 µM
SMILES: COc1cc(C2c3c(cc(OC)c(O)c3OC)CC(CO)C2COC2OCC(O)C(O)C2O)cc(OC)c1O (stereo not drawn) [LA, lyoniresinol-3α-O-β-arabinopyranoside]
FAS Inhibitory Activity IC50 [1, 11]: did not show a significant inhibitory effect

IC50 [1, 12]: > 476 µM
SMILES: CC1OC(OC2Cc3c(O)cc(O)cc3OC2c2ccc(O)cc2)C(O)C(O)C1O (stereo not shown) [AR, afzelechin-3-rhamnopyranoside]
FAS Inhibitory Activity IC50 [1, 11]: did not show a significant inhibitory effect

SMILES: O=C(O[C@@H]1Cc2c(O)cc(O)cc2O[C@@H]1c1cc(O)c(O)c(O)c1)c1cc(O)c(O)c(O)c1 [EGCG, epigallocatechin gallate, reference compound]
FAS Inhibitory Activity IC50 [1, 11]: 24.8 ± 2.2 mg/L

IC50 [1, 12]: 35.5 µM
IC50 ([1]; same value as 20.1 µg/mL given in molar unit, read-out: FAS inhibition IC50): 35.5 µM
IC50 [2]: 56.3 µM
Type of inhibition with respect to acetyl-CoA ([3]; acetyl-CoA variable substrate): competitively
Type of inhibition with respect to malonyl-CoA ([3]; malonyl-CoA variable substrate): noncompetitively
Type of inhibition with respect to NADPH [4]: competitively
IC50 ([5]; Homo sapiens, Caco-2, 24 h, MTT): 28.4 mg/L (≈ 50.1 µM)
IC50 ([6]; Homo sapiens, MTT): 24.9 mg/L (≈ 43.9 µM)
IC50 ([7]; Homo sapiens, SW-620, 24 h, MTT): 22.1 mg/L (≈ 39 µM)
Relative FAS activity [8]: under 20%
IC50 ([9]; 24 h treatment): 45 µM
Relative FAS activity ([9]; LR 60 µg/mL, 24 h): under 20%
IC50 ([10]; 24 h treatment): 38.5 µM
Relative FAS activity ([10]; LR 60 µg/mL, 24 h): under 20%
SMILES: COc1cc(C2c3c(cc(OC)c(O)c3OC)CC(CO)C2COC2OC(C)C(O)C(O)C2O)cc(OC)c1O (stereo not drawn) [LR, lyoniresinol-3α-O-β-rhamnopyranoside]
Cell viability with exogenous palmitic acid (rescue) [5, 13]: restored significantly
Cell viability with exogenous palmitic acid (rescue) ([6]; LR 25 μg/mL + palmitic acid 100 μM, versus LR alone): restored significantly
Cell viability with exogenous palmitic acid (rescue) [7, 13]: restored significantly
